The results in this text go back to patent US7977364B2, “Indazoles, benzisoxazoles and benzisothiazoles and their use as estrogenic agents” (Laboratoire Thermamex, priority 2004, dated 2011).

Data set [1] has as its system human endometrial adenocarcinoma Ishikawa cells. Description: Estrogenic and anti-estrogenic activities in vitro: induction of alkaline phosphatase (APase) activity. The data set is classed as cell-based. Here is the method:
The estrogenic and anti-estrogenic potentials of new compounds were evaluated using the induction of alkaline phosphatase (APase) activity, an estrogen specific response in human endometrial adenocarcinoma Ishikawa cells (Botella J., J Steroid Biochem Molec Biol, 1995, 55: 77-84; Littlefield et al., Endocrinology, 1990, 127: 2757-2762).
Ishikawa cells were routinely grown as monolayers in Dulbecco's Modified Eagle's medium (DMEM) containing 4 mM Glutamax I and supplemented with 10% of decomplemented fetal calf serum (dFCS) and antibiotics. They were maintained in a humidified atmosphere of 5% CO2 and 95% air, at 37±0.1° C. Stocks were performed once a week to maintain continuous exponential growth.
For studies, Ishikawa cells were plated into 96-well microplates. The next day, the medium was changed to a phenol red-free DMEM containing 5% dFCS stripped of endogenous estrogens by dextran coated charcoal treatment.
At the end of the incubation period, APase activity was assayed by a method involving the hydrolysis of p-nitrophenyl phosphate to p-nitrophenol at pH 9.8 and spectrophotometric determination of the product at 405 nm.
In brief, the microplates were first rinsed twice with cold phosphate buffered solution and then placed at −80° C. for at least 15 minutes. After thawing at room temperature for 5-10 minutes, the plates were put on ice and 50 μl ice-cold solution containing 5 mM p-nitrophenyl phosphate was added to each well. The plates were warmed to room temperature to allow for the development of the enzymatic reaction (t0). After a 15 to 60 minute incubation period, the intensity of the yellow color generated by the production of p-nitrophenol was measured into each well at 405 nm using a microplate reader (Wallac, model 1420 Victor^2). […] Sigmoidal dose-response curves were plotted and EC50 (estrogenic effect) and IC50 (anti-estrogenic effect) values were calculated for each compound.

Data set [2] deals with human breast cancer cell line MCF-7. Nature of the data set: Proliferative activity in vitro (ATP luminescence, 6 days). The conditions noted are these: for EC50: MCF-7, six days, read-out: Cell proliferation EC50 (nM) ± S.E.M. In kind it is cell-based. Here is the method:
The proliferative effect of the compounds of the invention was evaluated on human breast cancer cell line MCF-7 by measuring the number of viable cells after 6 days of treatment.
MCF-7 cells were routinely cultured as monolayers in Dulbecco's modified Eagle's medium (DMEM) containing 4 mM Glutamax and 4.5 g/l glucose and supplemented with 5% (v/v) decomplemented fetal calf serum (dFCS) and antibiotics.
Cells were plated at 2.10^6 cells/75 cm^2 flasks and incubated at 37° C. in a humidified atmosphere containing 5% CO2. They were passaged once weekly to maintain continuous exponential growth. Forty eight hours before the start of an experiment, near-confluent cells were changed to a phenol red free DMEM containing 5% steroid-stripped dFCS by dextran coated charcoal treatment (DCC-DMEM). On the day of the experiment, cells were harvested by brief exposure to trypsin and plated in DCC-DMEM in 96-well microplates at a density of 4.10^3 cells/well. The next day, the medium was renewed and test compounds, diluted appropriately in estrogen-free DMEM, were added and incubated for six days. […] At the end of the incubation period, cell proliferation was evaluated by quantitation of the cellular ATP content which signals the presence of metabolically active cells.
The assay, based on the ATP-dependent luciferase reaction, enables generation of a luminescent signal proportional to the amount of ATP present. As there is a linear relationship between the amount of ATP and the number of viable cells present in culture, the luminescent signal allowed to precisely evaluate cell proliferation (Crouch, S. P. M. et al. J. Immunol. Meth., 1993, 160, 81; Kangas, L. et al. Med. Biol. 1984, 62, 338; Petty, R. D. et al. J. Biolum. Chemilum. 1995, 10, 29).
In brief, the microplates were inverted to discard the culture medium and 100 μl of fresh medium was added into each well. The microplates were equilibrated at room temperature for approximately 30 minutes. 100 μl of luciferase reagent was added into each well and contents were mixed for 2 minutes to induce cell lysis. The plates were incubated at room temperature for 10 minutes to stabilize luminescence signal.
Luminescence was recorded using a microplate reader (Wallac, model 1420 Victor^2) and results were expressed as percentage of the control luminescence. Sigmoidal dose-response curves were plotted and EC50 values were calculated for each compound in order to evaluate their proliferative potency.

A further data set relates to Prepubescent female rats. Description: Estrogenic / uterotrophic activity in vivo (uterus wet weight). The arrangement: species or system rat. The conditions noted are these: Table 4, orally 3 mg/rat/day for 3 days; for change in vivo at 3 mg: Rattus norvegicus, po, 72 h, read-out: % stimulation vs vehicle (uterus weight). As to the method:
Prepubescent female rats were orally treated at 3 mg/rat/day for 3 days. On the day following the last treatment, uteri were removed and wet weights were recorded.
The results are expressed as % of stimulation of uterus weight in comparison with vehicles. […]
Prepubescent female rats were orally treated with 0.3; 1; 3 or 10 mg/rat/day for 3 days. On the day following the last treatment, uteri were removed and wet weights were recorded.

Data set [3] addresses T1, purified full-length recombinant human ERα (Homo sapiens, UniProt P03372).
T1 sequence (P03372 1-595): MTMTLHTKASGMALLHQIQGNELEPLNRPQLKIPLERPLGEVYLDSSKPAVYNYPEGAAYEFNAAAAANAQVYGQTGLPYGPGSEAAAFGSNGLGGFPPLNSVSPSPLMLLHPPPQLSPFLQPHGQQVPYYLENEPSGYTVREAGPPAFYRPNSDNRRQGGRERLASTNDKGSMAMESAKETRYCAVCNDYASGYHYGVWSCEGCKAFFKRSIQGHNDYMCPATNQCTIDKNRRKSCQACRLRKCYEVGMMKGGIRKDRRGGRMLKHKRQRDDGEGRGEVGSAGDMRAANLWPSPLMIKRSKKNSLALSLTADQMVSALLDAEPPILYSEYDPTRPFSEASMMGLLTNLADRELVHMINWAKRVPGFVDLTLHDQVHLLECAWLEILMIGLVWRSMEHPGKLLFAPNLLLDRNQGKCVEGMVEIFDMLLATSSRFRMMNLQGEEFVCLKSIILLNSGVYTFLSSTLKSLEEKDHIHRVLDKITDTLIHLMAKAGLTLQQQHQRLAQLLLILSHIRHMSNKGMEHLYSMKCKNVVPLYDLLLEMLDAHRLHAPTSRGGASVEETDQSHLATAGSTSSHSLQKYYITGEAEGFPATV
Nature of the data set: Estrogen receptor α competitive radiometric binding assay ([3H]-E2). Particulars: for RBA (%) Mean ± S.E.M, ER α: ratio of IC50s of E2 and competitor, E2 set at 100%.
Description: (§1) Relative binding affinities (RBA) were determined by competitive radiometric binding assays, using purified full-length recombinant human ERα and ERβ (PanVera, Madison, Wis.). […] After shaking for a few seconds and centrifugation at 1500 g and 4° C. for 10 minutes, 150 μl/well of Optiphase ‘Super Mix’ scintillation liquid was mixed with 50 μl of supernatant of each sample and the radioactivity was measured in a MicroBeta counter (Wallac, Turku, Finland). Data were evaluated by a sigmoidal dose-response curve (Prism, GraphPad Software Inc.) to estimate the concentration of competitor at half-maximal specific binding (IC50). […] The selectivity for ERα and ERβ was obtained from the ratio R of the IC50 for ERα to the IC50 for ERβ for each test compound.

Data set [4] addresses purified full-length recombinant human ERβ (Homo sapiens, UniProt Q92731). Description: Estrogen receptor β competitive radiometric binding assay ([3H]-E2). Particulars: for RBA (%) Mean ± S.E.M, ER β: ratio of IC50s of E2 and competitor, E2 set at 100%; for R (IC50s) αβ: ratio of the IC50 for ERα to the IC50 for ERβ.
Description: as §1

Read-outs that look alike come from different tables or passages of the source.

purified full-length recombinant human ERβ, sequence (Q92731 whole entry): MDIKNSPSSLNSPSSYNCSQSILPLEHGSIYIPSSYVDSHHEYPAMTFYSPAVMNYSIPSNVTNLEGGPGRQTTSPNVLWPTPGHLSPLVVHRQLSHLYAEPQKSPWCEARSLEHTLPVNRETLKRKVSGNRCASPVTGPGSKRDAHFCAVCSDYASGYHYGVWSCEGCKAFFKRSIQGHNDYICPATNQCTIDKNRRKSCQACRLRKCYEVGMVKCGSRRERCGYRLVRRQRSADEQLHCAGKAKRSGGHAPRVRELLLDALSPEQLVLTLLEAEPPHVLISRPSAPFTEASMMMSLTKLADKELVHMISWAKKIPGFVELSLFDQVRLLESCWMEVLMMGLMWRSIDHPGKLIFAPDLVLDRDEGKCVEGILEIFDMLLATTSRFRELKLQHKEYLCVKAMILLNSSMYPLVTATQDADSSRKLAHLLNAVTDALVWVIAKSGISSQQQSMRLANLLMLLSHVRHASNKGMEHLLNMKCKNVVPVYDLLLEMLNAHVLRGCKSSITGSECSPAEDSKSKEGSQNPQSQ

`Cl.Oc1ccc2c(C3CCCC3)nn(CCN3CCCCC3)c2c1`: the melting point – broadly, the temperature, or range, at which the solid turns liquid – worked out at 120 °C.
Still for that read-out and setting: the value for `Cl.Oc1ccc2c(C3CCCCCC3)n[nH]c2c1` was 95 °C.
The same measure, in the same setting: the value for `COc1ccc(C2=COc3cc(O)cc4[nH]nc2c34)cc1.Cl` was 255 °C; that for `Cl.Oc1ccc(C2=COc3cc(O)cc4[nH]nc2c34)cc1` was 111 °C.
With “1-(aminosulfonyl)-3-cyclohexyl-1H-indazol-6-yl-sulfamate [Ex 35]”, the EC50 in data set [1] (compound alone, four days, ND = not detected, read-out: Estrogenic activity EC50 (nM) ± S.E.M) worked out at 374 ± 43 nM; in data set [2] it was 58.2 ± 15 nM. The “estrogenic effect in alkaline phosphatase activity in the Ishikawa cell model” value in data set [1] (in words) is given as “weak estrogenic effect”. Moreover, the “Effect at 10^−6 M (% of control)” value in data set [2] (MCF-7, 10^−6 M, six days) is 162.6 % of control. Moreover, the “Effect at 10^−8 M (% of control)” value in data set [2] (MCF-7, 10^−8 M, six days) was 94.4 % of control. Also, in the data set on Prepubescent female rats, the “% stimulation vs vehicle (uterus weight)” value turned out to be 38%. Also, the “RBA (%) Mean ± S.E.M, ER α” value in data set [3] was 0.1 ± 0.02%. Further, the IC50 (in general, the point on the concentration scale where inhibition reaches its midpoint) was determined as 2690 ± 593 nM in data set [3] (read-out: IC50 (nM) Mean ± S.E.M, ER α, 2 nM [3H]-E2, 4° C., 18-20 hours) and 248 ± 48.7 nM in data set [4] (read-out: IC50 (nM) Mean ± S.E.M, ER β, 2 nM [3H]-E2, 4° C., 18-20 hours). Besides, the “selectivity for the human recombinant estrogen receptor β” value in data set [4] (in words) is reported as “marked selectivity”. The “RBA (%) Mean ± S.E.M, ER β” value in data set [4] turned out to be 0.9 ± 0.1%. The “R (IC50s) αβ” value in data set [4] was found to be 10.8.
With `N#CC(Cc1ccc(O)cc1)c1ccc(O)cc1` (stereo not shown) [DPN, 2,3-bis-(4-hydroxyphenyl)propionitrile, reference compound], the change in vivo at 3 mg in the data set on Prepubescent female rats turned out to be 358%.
Consider `N#CC(Cc1ccc(O)c(F)c1)c1noc2cc(O)ccc12` (stereo not shown) [Ex 81, 2-(6-hydroxy-1,2-benzisoxazol-3-yl)-3-(3-fluoro-4-hydroxyphenyl)-propanenitrile], for which the melting point stood at 201 °C. Moreover, the activity at 1 µM in data set [2] (Homo sapiens, MCF7, 144 h, MCF-7, 10^−6 M, six days, read-out: Effect at 10^−6 M (% of control)) stood at 117%. In data set [2] (Homo sapiens, MCF7, 144 h, MCF-7, 10^−8 M, six days, read-out: Effect at 10^−8 M (% of control)), the activity at 0.01 µM is 86.8%. Also, the EC50 in data set [2] (Homo sapiens, MCF7, 144 h) is 635 ± 285 nM. Further, the change in vivo at 3 mg in the data set on Prepubescent female rats was determined as 49%. Also, in data set [3], the IC50 came to 139 ± 33.9 nM and the “RBA (%) Mean ± S.E.M, ER α” value came out at 2.4 ± 0.7%. Further, in data set [4], the IC50 was 14.4 ± 5.3 nM; the “RBA (%) Mean ± S.E.M, ER β” value is 35.9 ± 14.0%; the “R (IC50s) αβ” value worked out at 9.7.
For the compound `Cn1nc(C2CCCCC2)c2ccc(O)cc21` [Example 25, 3-cyclohexyl-1-methyl-1H-indazol-6-ol], the melting point is 205 °C.
Still for that read-out and setting: then `Oc1ccc(-n2nc(C3CCCC3)c3ccc(O)cc32)cc1` [Example 26, 3-cyclopentyl-1-(4-hydroxyphenyl)-1H-indazol-6-ol], with 178 °C; and `Oc1ccc2c(C3CCCC3)nn(Cc3ccc(Br)cc3)c2c1` [Example 28, 1-(4-bromobenzyl)-3-cyclopentyl-1H-indazol-6-ol], with 147 °C.
The same measure, in the same setting: then `Oc1ccc2c(C3CCCCC3)nn(Cc3ccccc3)c2c1` [Example 29, 1-benzyl-3-cyclohexyl-1H-indazol-6-ol], with 154 °C.
`Cn1nc(C2CCCCC2)c2ccc(S(N)(=O)=O)cc21` [Example 36, 3-cyclohexyl-1-methyl-1H-indazole-6-sulfonamide] returned a melting point of 188 °C.
The same measure, in the same setting: then `NS(=O)(=O)n1nc(C2CCCCCC2)c2ccc(O)cc21` [Example 39, 3-cycloheptyl-6-hydroxy-1H-indazole-1-sulfonamide], with 155 °C; and `c1ccc(COc2ccc3c(C4CCCCCC4)noc3c2)cc1` [Example 63, 6-benzyloxy-3-cycloheptyl-1,2-benzisoxazole], with 80 °C; and `Oc1ccc2c(C34CC5CC(CC(C5)C3)C4)noc2c1` [Example 64, 3-(1-adamantyl)-1,2-benzisoxazol-6-ol], with 215 °C.
For `NS(=O)(=O)Oc1ccc2c(C34CC5CC(CC(C5)C3)C4)noc2c1` [Example 74, 3-(1-adamantyl)-1,2-benzisoxazol-6-yl sulfamate], the melting point was 87 °C.
The same measure, in the same setting: then `NS(=O)(=O)Oc1ccc2c(C3CCCCCC3)noc2c1` [Example 75, 3-cycloheptyl-1,2-benzisoxazol-6-yl sulfamate], with 82 °C.
In turn, `NS(=O)(=O)Oc1ccc2c(C3CCCCC3)noc2c1` [Example 76, 3-cyclohexyl-1,2-benzisoxazol-6-yl sulfamate] had a melting point of 145 °C.
Compound `COc1ccc2c(C(C#N)Cc3ccc(O)cc3C)noc2c1` (stereo not shown) [Example 82, 2-(6-methoxy-1,2-benzisoxazol-3-yl)-3-(4-hydroxy-2-methylphenyl)-propanenitrile] came in with a melting point of 131 °C.
Still for that read-out and setting: then `Oc1ccc2c(C3CCCC3)nsc2c1` [Example 94, 3-cyclopentyl-1,2-benzisothiazol-6-ol], with 130 °C.
Still for that read-out and setting: the value for `NS(=O)(=O)Oc1ccc2c(C3CCCC3)nsc2c1` [Example 96, 3-cyclopentyl-1,2-benzisothiazol-6-yl sulfamate] was 132 °C.
On to `CCCc1c(-c2ccc(O)cc2)nn(-c2ccc(O)cc2)c1-c1ccc(O)cc1` [PPT, 1,3,5-tris-(4-hydroxyphenyl)-4-propyl-1H-pyrazole, reference compound], for which the change in vivo at 3 mg in the data set with Prepubescent female rats turned out to be 96%.
Still for that read-out and setting: then `CC/C(=C(\c1ccccc1)c1ccc(OCCN(C)C)cc1)c1ccccc1` [TAM, tamoxifen, reference compound], with 206%.
